# Experimental data as given in patent publication US7119213B2, “Pharmacologically active isolated or purified dauer pheromone compound for controlling aging and stress and method for isolating and characterizing the same” (priority 2002, dated 2006).
# Test system: C. elegans
# Test: Dauer inducing activity assay (dauer test on worms grown in S medium)
# Format: in vivo
# Description: To examine whether this ethanol extract (A) can induce dauer larva phase, dauer test is performed on the worms that had been grown in the S medium.
# Briefly, the dried A was dissolved in double distilled water and extracted with the equal volume of ethyl acetate. This extraction procedure was repeated 5 times.
# After confirming the dauer inducing activity of B, extracts obtained by the above-described process are loaded onto a silica-gel absorption column which has been equilibrated with hexane: ethyl acetate: methanol=7:7:1. An active form of dauer pheromone (C) that were adsorbed onto the column was eluted with methanol.
# To further purify C, HPLC separation is carried out using amine column. Briefly, the fraction C is dissolved in methanol and diluted with double distilled water (MeOH: ddH2O=1:1). This solution containing C is loaded onto the amine column, which is equilibrated with isopropanol solution (isopropanol: water=1:1). A dauer pheromone fraction bound to the column (Fraction D) was eluted with a gradient solution of the same solvent.
# Table 5 outlines the result of dauer inducing assay using the active fractions D from the amine column chromatography. Finally, a dauer pheromone (E) is completely isolated and purified refined by size exclusion column chromatography using methanol as an eluent solution.
# The pure dauer pheromone characterized by the above described procedures is defined as the structural formula I, and its chemical formula is 6-(3,5-dihydroxy-6-methyl-tetrahydro-pyran-2-yloxy)-heptanoic acid or its sodium salt.
compound,measurement,setting,value
"CC(CCCCC(=O)O)OC1OC(C)C(O)CC1O (stereo not drawn) [W251 column fraction (purified form), 6-(3,5-dihydroxy-6-methyl-tetrahydro-pyran-2-yloxy)-heptanoic acid]",Formation of dauer larva stage (%),dauer test on C. elegans,100%
same,Population in dauer larva stage,number of worms in dauer larva stage in the dauer test,62
same,Induction of dauer phase (in words),pure pheromone added onto the media,markedly induce the worm into dauer phase
